{"source": "patent US20030077573A1", "about": "“Methods of identifying compounds useful in the inhibition of neurodegenerative disease” (priority 1999, published 2003)", "key": {"[1]": {"test_system": "N9 murine microglial cell line", "test": "LPS-induced TNF-α release from N9 microglia", "format": "cell-based"}, "[2]": {"test_system": "murine microglial cell line (N9)", "test": "LTB4 release from N9 microglial cells", "format": "cell-based", "settings": "18 hours; for effect on Aβ-induced microglial LTB4 release: Aβ1-40 500 nM + drug (dipyridamole 10 μM)", "description": "The murine microglial cell line (N9) is kindly provided by Dr. Paola Ricciardi-Castagnoli (Cellular Pharmacology Center, Milan, Italy) and cells are grown in RPMI 1640 medium supplemented with 5% fetal calf serum, 2 mM glutamine, 100 U/mL penicillin, 0.1 μg/mL streptomycin and 0.05 mM 2-mercaptoethanol. Microglial cells are seeded at 50,000 cells/well in 6-well plates (Falcon, France) and treated with Aβ1-40 (500 nM), dipyridamole (10 μM) or untreated (control) and incubated for 18 hours. Cell supernatants are then collected and immediately frozen at −80° C.\nCell supernatants (50 μL) are used in the LTB4 assay, and each sample is assayed in duplicate. Manipulations are performed in accordance with the manufacturer's instruction. A spectramax 250 spectrophotometer (Molecular Devices, San Diego, USA) is used to measure absorbance at 405 nm and a standard curve is plotted using a 4-parameter model. Cell extracts for protein determination are obtained by lysing microglial cells in 110 μL of ice cold lysis buffer ([…] pH 7.5, 150 mM NaCl, 1 mM EDTA, 1 mM EGTA, 1% Triton X-100, 2.5 mM sodium pyrophosphate, 1 mM β-Glycerophosphate, 1 mM Na3VO4, 1 μg/ml leupeptin and 1 mM phenylmethylsulfonyl fluoride). Protein concentrations are determined for each sample using the Biorad reagent according to the manufacturer's instruction. LTB4 data are thus expressed as pg LTB4 /mg cellular protein."}, "rat aortic rings [3]": {"test_system": "rat aortic rings", "test": "vasoconstriction assay, ET-1-induced constriction of rat aortic rings", "settings": "ET-1 1-5 nM, ODQ 10 μM, YC-1 5 μM, L-NAME 100 μM, dipyridamole 10 μM; for effect on Aβ-enhancement of ET-1-induced vasoconstriction (agent + Aβ): 1 μM Aβ1-40, ANOVA interaction; for effect on ET-1-induced vasoconstriction (agent alone): Aβ1-40 1 μM", "description": "(§1) Vasoactivity is measured in rat aortic rings using the system previously described, for example by Crawford, F., et al., The vasoactivity of Aβ peptides, Ann. N. Y. Acad. Sci. 826:3546, (1997); Crawford, F., et al., Characteristics of the in vitro vasoactivity of beta-amyloid peptides, Exp. Neurol. 150:159-168 (1998); Paris, D., et al., Isoform-specific vasoconstriction induced by Apolipoprotein E and modulation of this effect by Alzheimer's β-amyloid peptide. Neurosci. Lett. 256:73-76, (1998); Paris, D., et al., Role of peroxynitrite in the vasoactive and cytotoxic properties of Alzheimer's β-amyloid1-40 peptide, Exp. Neurol. 152:116-122 (1998); and Thomas, T. N., et al., Vasoactive effects and free radical generation by β-amyloid peptides. U.S. Pat. No. 6,011,019. Jan. 4, 2000. Normal male Sprague-Dawley rats (7-8 months old) are sacrificed, and freshly dissected rat aortae are segmented into 3 mm rings and suspended in Kreb's buffer on hooks. These hooks are connected to an isometric transducer linked to a MacLab system. Aortic rings are equilibrated in the tissue bath system for two hours with the Kreb's buffer changed every 30 min.\nFor the vasoconstriction assay, the first group of aortic rings are pre-treated with 10 μM ODQ 2 minutes prior to the addition of 1 μM of Aβ1-40. After 5 minutes of incubation with Aβ, the vessels are then subjected to a dose range of ET-1 (from 1 nM to 5 nM). The second set of vessels are treated with Aβ prior to the addition of ET-1. A third set received ODQ treatment followed by ET-1, and the fourth group (control) only received ET-1 treatment. A similar protocol is applied with dipyridamole (10 μM), and YC-1 (5 μM). In all cases the percentage contraction as compared to baseline is determined for each dose of ET-1 used. The means and standard errors (SEs) of all such values are calculated."}, "rat aortic rings [4]": {"test_system": "rat aortic rings", "test": "vasorelaxation assay, phenylephrine-constricted rat aortic rings", "settings": "for effect on the relaxation induced by SNP: vessels constricted with 3.5 nM PE, SNP 0.1, 1, 2 μM, Aβ1-40 1 μM or ODQ 10 μM", "description": "as §1\nFor the vasorelaxation assay, constricted aortic rings are pre-treated for 5 minutes with 1 μM of Aβ with a single dose of phenylephrine (3.5×10^−9 M) along with untreated controls. After waiting for stabilization of vasotension, aortic segments are subjected to a range of SNP doses. Aortic rings pre-constricted with a single dose of phenylephrine (3.5×10^−9 M) are treated with 10 μM ODQ 5 minutes prior to the addition of several doses of SNP. The effect of 10 μM of dipyridamole is also investigated on vessels pre-constricted with 3.5×10^−9 M of phenylephrine. Data are standardized such that the maximum PE-induced constriction is fixed at 100%."}, "rat aortic rings [5]": {"test_system": "rat aortic rings", "test": "quantification of cGMP and cAMP levels in rat aortae (EIA)", "description": "Aortic rings are equilibrated in Kreb's buffer for 2 hours and then constricted with a serial dose range of ET-1 (from 1 nM to 5 nM) in the presence or absence of 1 μM of Aβ. Immediately following maximum vasoconstriction (or, in the case of control rings, after 2 hours of equilibration in Kreb's buffer), aortae are frozen in liquid nitrogen. Vessels are then homogenized in 10% trichloracetic acid (TCA) diluted in PBS (at 4° C.) and centrifuged to pellet TCA precipitated proteins. Supernatants are collected and TCA is then removed from samples by three extractions with diethyl ether saturated in deionized water. Residual ether is removed from the sample by heating samples to 70° C. for 10 minutes. Both cGMP and cAMP levels are quantified using competitive binding EIAs (Alexis Biochemicals, San Diego, Calif.) according to the manufacturer's instruction."}, "[6]": {"settings": "ET-1 1-5 nM vs untreated control"}}, "note": "Bridge positions count the residues as written; N and C are the ends. Ends that are not written are not given here."}
{"compound": "Nc1nc2c(nc(Br)n2[C@@H]2O[C@@H]3COP(=O)(O)O[C@H]3[C@H]2O)c(=O)[nH]1", "note": "[8-Br cGMP, 8-bromo cGMP]", "values": [{"measurement": "effect on LPS-induced microglial TNF-α release", "setting": "[1]; 8-Br cGMP 1 μM, data not shown", "value": "partially inhibit LPS-induced microglial TNF-α release"}, {"measurement": "effect on LPS-induced microglial TNF-α release", "setting": "[1]; 8-Br cGMP 5 μM, LPS 2.5 ng/mL, 18 h", "value": "completely inhibit LPS-induced microglial TNF-α release"}, {"measurement": "effect on Aβ-induced microglial LTB4 release", "setting": "[2]", "value": "completely block Aβ-induced microglial LTB4 release"}]}
{"compound": "COC(=O)[C@@H](N)CCCNC(=N)N[N+](=O)[O-]", "note": "[L-NAME, N-ω-nitro-L-arginine methyl ester]", "values": [{"measurement": "effect on Aβ-enhancement of ET-1-induced vasoconstriction (agent + Aβ)", "setting": "rat aortic rings [3]", "value": "no statistical interaction is observed"}, {"measurement": "effect on ET-1-induced vasoconstriction (agent alone)", "setting": "rat aortic rings [3]", "value": "does not significantly increase ET-1-induced vasoconstriction"}]}
{"compound": "O=c1onc2cnc3ccccc3n12", "note": "[ODQ, 1H-[1,2,4]oxadiazolo[4,3,-α]quinoxalin-1-one]", "values": [{"measurement": "effect on the relaxation induced by SNP", "setting": "rat aortic rings [4]", "value": "blocks the relaxation induced by this NO donor"}, {"measurement": "effect on Aβ-enhancement of ET-1-induced vasoconstriction (agent + Aβ)", "setting": "rat aortic rings [3]", "value": "constriction which is only additive"}, {"measurement": "effect on ET-1-induced vasoconstriction (agent alone)", "setting": "rat aortic rings [3]", "value": "Neither ODQ or Aβ alone are able to potentiate vasoconstriction induced by ET-1"}]}
{"compound": "OCCN(CCO)c1nc(N2CCCCC2)c2nc(N(CCO)CCO)nc(N3CCCCC3)c2n1", "note": "[dipyridamole]", "values": [{"measurement": "relaxation of aortic rings constricted with phenylephrine", "setting": "rat aortic rings [4]; 10 μM dipyridamole, 3.5 nM PE", "value": "induced potent relaxation"}, {"measurement": "effect on Aβ opposition to relaxation", "setting": "rat aortic rings [4]; 10 μM dipyridamole, Aβ-treated vs control vessels, PE-constricted", "value": "blocks the opposition to relaxation normally induced by Aβ"}, {"measurement": "relaxant effect on quiescent rings", "setting": "rat aortic rings [4]; 10 μM dipyridamole, data not shown", "value": "no significant relaxant effect"}, {"measurement": "effect on LPS-induced microglial activation (TNF-α release)", "setting": "[1]; LPS 2.5 ng/mL, 18 h, dipyridamole 10 μM, SNP 10 μM, YC-1 10 μM", "value": "markedly reduce microglial activation induced by LPS"}, {"measurement": "effect on Aβ-enhancement of ET-1-induced vasoconstriction (agent + Aβ)", "setting": "rat aortic rings [3]", "value": "blocks Aβ-induced vasoconstriction in a statistically interactive manner"}, {"measurement": "effect on ET-1-induced vasoconstriction (agent alone)", "setting": "rat aortic rings [3]", "value": "opposes ET-1-induced vasoconstriction in an ET-1 dose-dependent manner"}, {"measurement": "effect on Aβ-induced microglial LTB4 release", "setting": "[2]", "value": "completely prevents the increased LTB4 production induced by Aβ"}]}
{"compound": "Aβ1-40: freshly solubilized β-amyloid peptide Aβ1-40, supplied by QCB", "values": [{"measurement": "effect on the relaxation induced by SNP", "setting": "rat aortic rings [4]", "value": "relaxation induced by SNP, an NO-donor, is reduced"}, {"measurement": "cAMP levels in rat aortic rings", "setting": "rat aortic rings [5]; 1 μM Aβ + ET-1 vs ET-1 alone", "value": "not able to modulate cAMP levels"}, {"measurement": "cGMP levels in rat aortic rings", "setting": "rat aortic rings [5]; 1 μM Aβ + ET-1 vs ET-1 alone", "value": "significantly lower compared to ET-1 treatment alone"}, {"measurement": "microglial LTB4 release", "setting": "[2]; Aβ1-40 500 nM, vs untreated cells", "value": "significant LTB4 release"}]}
{"compound": "ET-1: Endothelin-1, one of the most potent cerebrovascular vasoconstrictors (CSCSSLMDKECVYFCHLDIIW; disulfide 1-15, 3-11; ends not checked; UniProt P05305 53-73, looked up)", "values": [{"measurement": "cAMP levels in rat aortic rings", "setting": "rat aortic rings [5]; [6]", "value": "increase"}, {"measurement": "cGMP levels in rat aortic rings", "setting": "rat aortic rings [5]; [6]", "value": "increase"}]}
